From patent US6372726B1, “Methods of cancer treatment using NAALADase inhibitors” (Guilford Pharmaceuticals Inc., priority 1996, dated 2002)
Where two headings read alike, the source gives them in different places.

Legend:
[1] = target: NAALADase (UniProt P70627); test: In vitro assay of NAALADase activity ([3H]Glu liberated from [3H]NAAG, synaptosomal protein); assay type: biochemical; conditions: for NAALADase inhibiting activity (in words): comparison of Table III(a) compounds
Protocol: The following compounds were tested for in vitro inhibition of NAALADase activity.
Substrate and product were resolved by anion-exchange liquid chromatography. […] Quisqualate (100 μM) was included in parallel assay tubes to confirm the specificity of the measurements.

[2] = system: mice; test: In vivo toxicity of NAALADase inhibitors in mice; conditions: doses of 1 to 500 mg/kg, observed 5 consecutive days
Source text: The mice were subsequently observed two times per day for 5 consecutive days.

[3] = system: R3327 rat prostate tumors (Dunning R3327-G prostate cancer cells); test: In vivo rat Dunning R3327 model
Protocol: Referring now to FIGS. 5 and 6, Dunning R3327-G prostate cancer cells were injected subcutaneously into both flanks of syngeneic male rats. […] In the second study, the anti-tumor growth activity of 2-[[phenylmethyl)hydroxyphosphinyl]methyl]pentanedioic acid was tested following daily intra-tumoral injections of the drug (0.1,1,10,100 μg) after the tumor reached an initial volume of 80-290 mm^3. Tumor volumes were subsequently monitored for 42 days after the beginning of drug treatment.
R3327-G is a cell line derived from an androgen-sensitive papillary adenocarcinoma derived from a spontaneously forming tumor in the rat prostate. […]
After the animals were released from quarantine, the rats were injected subcutaneously in both flanks with 1×10^7 R3327-G cells (0.1-ml injection volume). Tumor dimensions and body weight were measured twice weekly. Vernier calipers were used to measure tumors in three planes, and tumor volume (V) was calculated as follows: V=π(x×y×z)/6, where x, y, and z were the tumor measurements minus skin thickness. […]
The tumors were measured twice weekly. The mean tumor volume for each group was calculated for each time point. Comparisons between groups at specific times were made using an unpaired, two-tailed t-test, and the results were analyzed using analyzed of variance (ANOVA). […]

[4] = system: LNCAP human prostate tumors; test: In vivo LNCaP tumor xenograft assay; set-up: species or system mice; conditions: daily intratumoral injection (0.25 μg/day), six weeks, p=0.04
Protocol: Referring now to FIGS. 3 and 4, LNCaP human prostate cancer cells were injected subcutaneously into the right flank of male nude mice. […] The 2-(phosphonomethyl)pentanedioic acid polymer was changed two times per week. Tumor volumes were monitored for 42 days after the beginning of treatment.
LNCaP is a human prostate cancer cell line that was established in 1973 from a […] of a patient who had been treated with 5-FU, doxorubicin, methotrexate, and CTX in the 3 months before the cell line was initiated. This line is androgen receptor positive and has been used in screening anticancer drugs that are targeted as hormone antagonists. […]
After the animals were released from quarantine, the mice were injected subcutaneously in the right flank with 1×10^7 LNCaP cells in Matrigel™ (0.1-ml injection volume) Tumor dimensions and body weight were measured twice weekly. Vernier calipers were used to measure tumors in three planes, and tumor volume (V) was calculated as follows: V=π(x×y×z)/6, where x, y, and z were the tumor measurements minus skin thickness. […]
The tumor were measured twice weekly for at least 8 weeks after the first treatment. The mean tumor volume for each group was calculated for each time point. Comparisons between groups at specific times were made using an unpaired, two-tailed t-test, and the results were analyzed using analysis of variance (ANOVA). […]

[5] = system: LNCAP cells (a prostate cancer cell line); test: In vitro cancer assay: 3H-thymidine incorporation in LNCAP cells; assay type: cell-based, human; conditions: for 3H-Thymidine Incorporation (dpm/well): LNCAP cells, 7 days
Protocol: On the 7th day, the cells are pulsed with 3H-thymidine for 4 hours, harvested and measured for radioactivity. Values represent means +/−SEM of 6 separate cell wells for each treatment. All experiments are performed at least twice.
Cells are grown in RPMI-1640 media supplemented with 10% heat-inactivated fetal calf serum, 2 mM-glutamine, 100 units/ml penicillin, and 100 μg/ml streptomycin (Paragon) in a humidified incubator at 37° C. in a 5% CO2/95% O2 atmosphere.
The cells are suspended at 1×10^3 cells/ml in RPMI-1640 media and seeded into 24-well plates at 500 μl per well. […] On days 3, 5 and 7, media and drug are refreshed. On the 8th day following seeding, each well is pulsed with 1 μCi ^3H-thymidine (New England Nuclear) for 4 hours. Media is then removed and the wells washed 2 times with phosphate buffered saline (pH=7.4). […] 5 ml UltimaGold (Packard) scintillation cocktail is added and radioactivity is quantitated using a Beckman LS6001 scintillation counter.

[6] = Table III(c), read-out: Ki Value

In the case of `CCCCP(=O)(O)CC(CCC(=O)O)C(=O)O` (stereo not shown), the Ki ([1]; Table III(b), read-out: Ki) is reported as 148 nM.

Compound `Cc1cccc(P(=O)(O)CC(CCC(=O)O)C(=O)O)c1` (stereo not shown) has a Ki ([1]; Table III(b), read-out: Ki) of 190 nM.

Work on `O=C(O)CCC(CP(=O)(O)Cc1ccccc1F)C(=O)O` (stereo not shown) yielded a Ki [1, 6] of 175 nM.

`O=C(O)CCC(CP(=O)(O)Cc1c(F)c(F)c(F)c(F)c1F)C(=O)O` (stereo not shown) showed a Ki [1, 6] of 38 nM.

With `O=C(O)CCC(CP(=O)(O)O)C(=O)O` (stereo not shown) [2-(phosphonomethyl)pentanedioic acid] the “Toxicological effect in mice (in words)” value [2] was “non-toxic”, the “Tumor growth, FIG. 5” value ([3]; daily subcutaneous injections 1, 3, 10 and 30 mg/kg, 84 days) was “tumor growth slowed” and the Ki ([1]; Table III(a)) was 0.275 ± 0.08 nM. The “NAALADase inhibiting activity (in words)” value [1] was “high level of NAALADase inhibiting activity”, the Ki ([1]; text restating Table III(a)) was 0.27 nM and the “Potency relative to previously described inhibitors” value ([1]; times more potent) was over 1000 times. The “Mean tumor volume versus control group, FIG. 3” value [4] was “statistically significant difference”, the “LNCAP cell proliferation (incorporation of [3H]thymidine), FIG. 2” value ([5]; 7-day treatment, 100 pM to 10 nM) was “sharp dose-dependent decrease” and the “3H-Thymidine Incorporation (dpm/well)” value ([5]; 10 pM) was 3078 ± 1006 dpm/well. For the same compound, the “3H-Thymidine Incorporation (dpm/well)” value ([5]; 100 pM) was 2062 ± 595 dpm/well, the “3H-Thymidine Incorporation (dpm/well)” value ([5]; 1 nM) was 1001 ± 52 dpm/well and the “3H-Thymidine Incorporation (dpm/well)” value ([5]; 10 nM) was 664 ± 366 dpm/well.

In the case of `O=C(O)CC(CP(=O)(O)O)C(=O)O` (stereo not shown) [2-(phosphonomethyl)succinic acid, reference compound], the “NAALADase inhibiting activity (in words)” value [1] is reported as “much lower NAALADase inhibiting activity”.

With `O=C(O)CCC(CP(=O)(O)Cc1ccccc1)C(=O)O` (stereo not shown) [2-[(benzylhydroxyphosphinyl)methyl]pentanedioic acid] the “Mean tumor volume relative to start of treatment (V/Vo) versus control group, FIG. 6” value ([3]; daily intra-tumoral injections of 1 μg, 2.5 weeks, p=0.02) was “statistically significant difference”.

For `O=C(O)CCC(CP(=O)(O)CCC(=O)O)C(=O)O` (stereo not shown) [2-[[2-carboxyethyl)hydroxyphosphinyl]-methyl]pentanedioic acid)], the “NAALADase inhibiting activity (in words)” value [1] was “lower NAALADase inhibiting activity”.
